Test results published in PMC6297231 (Nature Communications, 2018).

What was measured:
Experiment in all cases: cells
5637 = conditions: 6 h, read-out: AZD5991 6h EC50
Description: (§1) Cells were plated at 3000 cells/well in 384-well white plates in corresponding cell growth media. […] Caspase-3/7 activation was subsequently determined using a Caspase-Glo 3/7 Reagent (Promega) and viability was assayed using the CellTiter-Glo Reagent (Promega) as described in manufacturer’s instructions. Dose–response curves for caspase-3/7 activation and viability were plotted and analyzed (including EC50 and GI50 determination) using GraphPad Prism. Percentage of caspase activation was calculated against the maximum caspase activation value (100%) obtained with a proprietary cell kill control.

HCC1187 = conditions: Homo sapiens, HCC1187, 6 h, read-out: AZD5991 6h EC50
Description: as §1

HMCB = conditions: Homo sapiens, 6 h, read-out: AZD5991 6h EC50
Description: as §1

HBL1 = conditions: HBL1, 6 h, read-out: AZD5991 6h EC50
Description: as §1

H1395 = conditions: Homo sapiens, NCI-H1395, 6 h, read-out: AZD5991 6h EC50
Description: as §1

HL60 = conditions: Homo sapiens, HL-60, 6 h, read-out: AZD5991 6h EC50
Description: as §1

SKLU1 = conditions: Homo sapiens, SK-LU-1, 6 h, read-out: AZD5991 6h EC50
Description: as §1

A2058 = conditions: Homo sapiens, A2058, 6 h, read-out: AZD5991 6h EC50
Description: as §1

H358 = conditions: Homo sapiens, NCI-H358, 6 h, read-out: AZD5991 6h EC50
Description: as §1

Kasumi3 = conditions: Kasumi-3, 6 h, read-out: AZD5991 6h EC50
Description: as §1

FaDu = conditions: Homo sapiens, 6 h, read-out: AZD5991 6h EC50
Description: as §1

WSUNHL = conditions: Homo sapiens, WSU-NHL, 6 h, read-out: AZD5991 6h EC50
Description: as §1

Pfeiffer = conditions: Homo sapiens, 6 h, read-out: AZD5991 6h EC50
Description: as §1

H1048 = conditions: Homo sapiens, NCI-H1048, 6 h, read-out: AZD5991 6h EC50
Description: as §1

HCC1954 = conditions: Homo sapiens, HCC1954, 6 h, read-out: AZD5991 6h EC50
Description: as §1

RT4 = conditions: Homo sapiens, RT-4, 6 h, read-out: AZD5991 6h EC50
Description: as §1

KMS34 = conditions: KMS-34, 6 h, read-out: AZD5991 6h EC50
Description: as §1

Daudi = conditions: Homo sapiens, 6 h, read-out: AZD5991 6h EC50
Description: as §1

MWCL1 = conditions: 6 h, read-out: AZD5991 6h EC50
Description: as §1

647V = conditions: Homo sapiens, 6 h, read-out: AZD5991 6h EC50
Description: as §1

SNU1197 = conditions: 6 h, read-out: AZD5991 6h EC50
Description: as §1

MAVER1 = conditions: Homo sapiens, Maver1, 6 h, read-out: AZD5991 6h EC50
Description: as §1

JJN3 = conditions: Homo sapiens, JJN-3, 6 h, read-out: AZD5991 6h EC50
Description: as §1

RPMI8226 = conditions: Homo sapiens, RPMI-8226, 6 h, read-out: AZD5991 6h EC50
Description: as §1

RCPIWM1 = conditions: 6 h, read-out: AZD5991 6h EC50
Description: as §1

H196 = conditions: NCI-H196, 6 h, read-out: AZD5991 6h EC50
Description: as §1

OE21 = conditions: OE21, 6 h, read-out: AZD5991 6h EC50
Description: as §1

SKOV3 = conditions: Homo sapiens, SK-OV-3, 6 h, read-out: AZD5991 6h EC50
Description: as §1

SKMEL2 = conditions: Homo sapiens, SK-MEL-2, 6 h, read-out: AZD5991 6h EC50
Description: as §1

PL21 = conditions: PL-21, 6 h, read-out: AZD5991 6h EC50
Description: as §1

AMO1 = conditions: Homo sapiens, AMO1, 6 h, read-out: AZD5991 6h EC50
Description: as §1

OV90 = conditions: Homo sapiens, OV-90, 6 h, read-out: AZD5991 6h EC50
Description: as §1

H1975 = conditions: Homo sapiens, NCI-H1975, 6 h, read-out: AZD5991 6h EC50
Description: as §1

LnCAP = conditions: Homo sapiens, 6 h, read-out: AZD5991 6h EC50
Description: as §1

HCC827 = conditions: Homo sapiens, HCC827, 6 h, read-out: AZD5991 6h EC50
Description: as §1

Raji = conditions: Homo sapiens, 6 h, read-out: AZD5991 6h EC50
Description: as §1

ZR751 = conditions: Homo sapiens, ZR-75-1, 6 h, read-out: AZD5991 6h EC50
Description: as §1

Sudhl5 = conditions: Homo sapiens, SU-DHL-5, 6 h, read-out: AZD5991 6h EC50
Description: as §1

Cc1c2c(nn1C)CSCc1cc(n(C)n1)CSc1cc(c3ccccc3c1)OCCCc1c(C(=O)O)n(C)c3c-2c(Cl)ccc13 (atropisomer, axis not shown; (Ra)) [(Ra)-7]
EC50 5637: 107 nM | EC50 (HCC1187): 235 nM | EC50 (HMCB): 25.9 µM | EC50 (HBL1): 25.8 µM | EC50 (H1395): 15.4 µM | EC50 (HL60): 656 nM | EC50 (SKLU1): > 30 µM | EC50 (A2058): > 30 µM | EC50 (H358): > 30 µM | EC50 (Kasumi3): 882 nM | EC50 (FaDu): 23.3 µM | EC50 (WSUNHL): 512 nM | EC50 (Pfeiffer): > 30 µM | EC50 (H1048): > 30 µM | EC50 (HCC1954): 682 nM | EC50 (RT4): 18.1 µM | EC50 (KMS34): 240 nM | EC50 (Daudi): 16.1 µM | EC50 (MWCL1): 27.7 µM | EC50 (647V): 26.5 µM | EC50 (SNU1197): > 30 µM | EC50 (MAVER1): 27.8 µM | EC50 (JJN3): 223 nM | EC50 (RPMI8226): 76 nM | EC50 (RCPIWM1): 39 nM | EC50 (H196): > 30 µM | EC50 (OE21): 187 nM | EC50 (SKOV3): > 30 µM | EC50 (SKMEL2): 9.48 µM | EC50 (PL21): 409 nM | EC50 (AMO1): 90 nM | EC50 (OV90): > 30 µM | EC50 (H1975): > 30 µM | EC50 (LnCAP): > 30 µM | EC50 (HCC827): > 30 µM | EC50 (Raji): 7.4 µM | EC50 (ZR751): > 30 µM | EC50 (Sudhl5): 19 nM
